Where two headings read alike, the source gives them in different places.
How the values were obtained:
Type in all cases: in vivo
[1] = test system: ducksalad (Heteranthera limosa); assay: Test B flooded paddy test; conditions: Heteranthera limosa, Flood, 250 g ai/ha, read-out: Ducksalad plant response rating
Procedure, shortened: (§1)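 Rating scale 0–100 (visual, vs untreated controls) after a 13–15 d greenhouse period; application to the flood layer, 3 cm above soil and maintained; plants at 2-leaf stage when treated.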

[2] = test system: sedge, umbrella (small-flower umbrella sedge, Cyperus difformis); assay: Test B flooded paddy test; conditions: Cyperus difformis, Flood, 250 g ai/ha
Procedure, shortened: as §1

[3] = test system: barnyardgrass (Echinochloa crus-galli); assay: Test B flooded paddy test; conditions: Echinochloa crus-galli, Flood, 250 g ai/ha, read-out: Barnyardgrass plant response rating
Procedure, shortened: as §1

rice (Oryra sativa) = assay: Test B flooded paddy test; conditions: Oryza sativa, Flood, 250 g ai/ha, read-out: Rice plant response rating
Procedure, shortened: as §1

[4] = test system: ryegrass, Italian (Italian ryegrass, Lolium multiflorum); assay: Test A postemergence; conditions: Lolium multiflorum, post-emergence, 240 h; for pest or weed control at 125 g/ha: 125 g ai/ha
Procedure, shortened: (§2)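 Visual injury scores from 0, no effect, to 100, complete control, were assigned versus untreated controls roughly 10 d after treatment in the greenhouse. Test chemicals, formulated with surfactant in a non-phytotoxic solvent, were applied to planted seeds as a preemergence soil spray or postemergence to one- to two-leaf plants 2 to 10 cm tall, in loam–sand soil.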

Kochia (Kochia scoparia) = assay: Test A postemergence; conditions: Bassia scoparia, post-emergence, 240 h; for pest or weed control at 125 g/ha: 125 g ai/ha
Procedure, shortened: as §2

[5] = test system: pigweed (Amaranthus retroflexus); assay: Test A postemergence; conditions: Amaranthus retroflexus, post-emergence, 240 h; for pest or weed control at 125 g/ha: 125 g ai/ha
Procedure, shortened: as §2

corn (Zea mays) = assay: Test A postemergence; conditions: Zea mays, post-emergence, 240 h
Procedure, shortened: as §2

[6] = test system: wheat (Triticum aestivum); assay: Test A postemergence; conditions: Triticum aestivum, post-emergence, 240 h, Postemergence
Procedure, shortened: as §2

[7] = test system: barnyardgrass (Echinochloa crus-galli); assay: Test A postemergence; conditions: Echinochloa crus-galli, post-emergence, 240 h; for pest or weed control at 125 g/ha: 125 g ai/ha
Procedure, shortened: as §2

[8] = test system: blackgrass (Alopecurus myosuroides); assay: Test A postemergence; conditions: Alopecurus myosuroides, post-emergence, 240 h; for pest or weed control at 125 g/ha: 125 g ai/ha
Procedure, shortened: as §2

[9] = test system: Galium (catchweed bedstraw, Galium aparine); assay: Test A postemergence; conditions: Galium, post-emergence, 240 h; for pest or weed control at 125 g/ha: 125 g ai/ha
Procedure, shortened: as §2

[10] = test system: ragweed (common ragweed, Ambrosia elatior); assay: Test A postemergence; conditions: Ambrosia artemisiifolia, post-emergence, 240 h; for pest or weed control at 125 g/ha: 125 g ai/ha
Procedure, shortened: as §2

[11] = test system: giant foxtail (Setaria faberii); assay: Test A postemergence; conditions: Setaria faberi, post-emergence, 240 h; for pest or weed control at 125 g/ha: 125 g ai/ha
Procedure, shortened: as §2

[12] = scale of 0 to 100 where 0 is no effect and 100 is complete control
[13] = 0 to 100 scale where 0 is no effect and 100 is complete control

For CSc1ccccc1NC(=O)[C@H]1C(=O)N(C)C[C@@H]1c1cc(C)c(C)c(C)c1 [Compound 798], the pest or weed control at 250 g/ha [1, 12] was 50%, the pest or weed control at 250 g/ha ([2]; scale of 0 to 100 where 0 is no effect and 100 is complete control, read-out: Sedge, Umbrella plant response rating) was 0% and the pest or weed control at 250 g/ha [3, 12] was 75%. The pest or weed control at 250 g/ha (rice (Oryra sativa); [12]) was 40%, the pest or weed control at 125 g/ha ([4]; postemergence, visual injury after approximately 10 d, 0 to 100 scale (0 no effect, 100 complete control), read-out: Plant response rating, Ryegrass, Italian) was 40% and the pest or weed control at 31 g/ha ([4]; Postemergence, 31 g ai/ha, visual injury after approx. 10 d, 0 to 100 scale, 0 no effect, 100 complete control, read-out: Plant response rating, Ryegrass, Italian) was 0%. For the same compound, the pest or weed control at 125 g/ha (Kochia (Kochia scoparia); postemergence, visual injury after approximately 10 d, 0 to 100 scale (0 no effect, 100 complete control), read-out: Plant response rating, Kochia) was 0%, the pest or weed control at 31 g/ha (Kochia (Kochia scoparia); Postemergence, 31 g ai/ha, visual injury after approx. 10 d, 0 to 100 scale, 0 no effect, 100 complete control, read-out: Plant response rating, Kochia) was 0% and the pest or weed control at 125 g/ha ([5]; postemergence, visual injury after approximately 10 d, 0 to 100 scale (0 no effect, 100 complete control), read-out: Plant response rating, Pigweed) was 20%. It also gave a pest or weed control at 31 g/ha ([5]; Postemergence, 31 g ai/ha, visual injury after approx. 10 d, 0 to 100 scale, 0 no effect, 100 complete control, read-out: Plant response rating, Pigweed) of 0%, a Corn plant response rating (crop injury, 0 = no effect, 100 = complete kill) at 125 g/ha (corn (Zea mays); 125 g ai/ha, postemergence, visual injury after approximately 10 d, 0 to 100 scale (0 no effect, 100 complete control)) of 40% and a Corn plant response rating (crop injury, 0 = no effect, 100 = complete kill) at 31 g/ha (corn (Zea mays); Postemergence, 31 g ai/ha, visual injury after approx. 10 d, 0 to 100 scale, 0 no effect, 100 complete control) of 0%. The plant injury at 31 g/ha ([6]; 31 g ai/ha, visual injury after approx. 10 d, 0 to 100 scale, 0 no effect, 100 complete control, read-out: Plant response rating, Wheat) was 0%, the pest or weed control at 125 g/ha ([7]; postemergence, visual injury after approximately 10 d, 0 to 100 scale (0 no effect, 100 complete control), read-out: Plant response rating, Barnyardgrass) was 80% and the pest or weed control at 31 g/ha ([7]; Postemergence, 31 g ai/ha, visual injury after approx. 10 d, 0 to 100 scale, 0 no effect, 100 complete control, read-out: Plant response rating, Barnyardgrass) was 40%. It also gave a pest or weed control at 125 g/ha ([8]; postemergence, visual injury after approximately 10 d, 0 to 100 scale (0 no effect, 100 complete control), read-out: Plant response rating, Blackgrass) of 40%, a pest or weed control at 31 g/ha ([8]; Postemergence, 31 g ai/ha, visual injury after approx. 10 d, 0 to 100 scale, 0 no effect, 100 complete control, read-out: Plant response rating, Blackgrass) of 0% and a pest or weed control at 125 g/ha ([9]; postemergence, visual injury after approximately 10 d, 0 to 100 scale (0 no effect, 100 complete control), read-out: Plant response rating, Galium) of 20%. The pest or weed control at 31 g/ha ([9]; Postemergence, 31 g ai/ha, visual injury after approx. 10 d, 0 to 100 scale, 0 no effect, 100 complete control, read-out: Plant response rating, Galium) was 0%, the pest or weed control at 125 g/ha ([10]; postemergence, visual injury after approximately 10 d, 0 to 100 scale (0 no effect, 100 complete control), read-out: Plant response rating, Ragweed) was 0% and the pest or weed control at 31 g/ha ([10]; Postemergence, 31 g ai/ha, visual injury after approx. 10 d, 0 to 100 scale, 0 no effect, 100 complete control, read-out: Plant response rating, Ragweed) was 0%. It also gave a pest or weed control at 125 g/ha ([11]; postemergence, visual injury after approximately 10 d, 0 to 100 scale (0 no effect, 100 complete control), read-out: Plant response rating, Foxtail, Giant) of 70% and a pest or weed control at 31 g/ha ([11]; Postemergence, 31 g ai/ha, visual injury after approx. 10 d, 0 to 100 scale, 0 no effect, 100 complete control, read-out: Plant response rating, Foxtail, Giant) of 20%.
For CN1C[C@H](c2cccc(C(C)(F)F)c2)[C@@H](C(=O)Nc2ccccc2F)C1=O [Compound 1317], the pest or weed control at 250 g/ha [1, 13] was 100%, the pest or weed control at 250 g/ha ([2]; 360 h, visually evaluated after 13 to 15 d, read-out: Plant response rating, Sedge, Umbrella (0 to 100 scale where 0 is no effect and 100 is complete control)) was 0% and the pest or weed control at 250 g/ha [3, 13] was 85%. The pest or weed control at 250 g/ha (rice (Oryra sativa); [13]) was 0%, the pest or weed control at 125 g/ha ([4]; Postemergence, visual rating about 10 d after treatment, read-out: Ryegrass, Italian plant response rating (0 to 100 scale)) was 40% and the pest or weed control at 500 g/ha ([4]; Postemergence, 500 g ai/ha, visual injury, 0 to 100 scale (0 no effect, 100 complete control), approx. 10 d, read-out: Plant response rating, Ryegrass, Italian) was 80%. The pest or weed control at 125 g/ha (Kochia (Kochia scoparia); Postemergence, visual rating about 10 d after treatment, read-out: Kochia plant response rating (0 to 100 scale)) was 20%, the pest or weed control at 500 g/ha (Kochia (Kochia scoparia); Postemergence, 500 g ai/ha, visual injury, 0 to 100 scale (0 no effect, 100 complete control), approx. 10 d, read-out: Plant response rating, Kochia) was 30% and the pest or weed control at 125 g/ha ([5]; Postemergence, visual rating about 10 d after treatment, read-out: Pigweed plant response rating (0 to 100 scale)) was 30%. For the same compound, the pest or weed control at 500 g/ha ([5]; Postemergence, 500 g ai/ha, visual injury, 0 to 100 scale (0 no effect, 100 complete control), approx. 10 d, read-out: Plant response rating, Pigweed) was 20%, the plant injury at 125 g/ha (corn (Zea mays); 125 g ai/ha, Postemergence, visual rating about 10 d after treatment, read-out: Corn plant response rating (0 to 100 scale)) was 80% and the Corn plant response rating (crop injury, 0 = no effect, 100 = complete kill) at 500 g/ha (corn (Zea mays); Postemergence, 500 g ai/ha, visual injury, 0 to 100 scale (0 no effect, 100 complete control), approx. 10 d) was 80%. The plant injury at 125 g/ha ([6]; 125 g ai/ha, visual rating about 10 d after treatment, read-out: Wheat plant response rating (0 to 100 scale)) was 60%, the plant injury at 500 g/ha ([6]; 500 g ai/ha, visual injury, 0 to 100 scale (0 no effect, 100 complete control), approx. 10 d, read-out: Plant response rating, Wheat) was 60% and the pest or weed control at 125 g/ha ([7]; Postemergence, visual rating about 10 d after treatment, read-out: Barnyardgrass plant response rating (0 to 100 scale, 0 no effect, 100 complete control)) was 90%. The pest or weed control at 500 g/ha ([7]; Postemergence, 500 g ai/ha, visual injury, 0 to 100 scale (0 no effect, 100 complete control), approx. 10 d, read-out: Plant response rating, Barnyardgrass) was 90%, the pest or weed control at 125 g/ha ([8]; Postemergence, visual rating about 10 d after treatment, read-out: Blackgrass plant response rating (0 to 100 scale)) was 80% and the pest or weed control at 500 g/ha ([8]; Postemergence, 500 g ai/ha, visual injury, 0 to 100 scale (0 no effect, 100 complete control), approx. 10 d, read-out: Plant response rating, Blackgrass) was 80%. For the same compound, the pest or weed control at 125 g/ha ([9]; Postemergence, visual rating about 10 d after treatment, read-out: Galium plant response rating (0 to 100 scale)) was 60%, the pest or weed control at 500 g/ha ([9]; Postemergence, 500 g ai/ha, visual injury, 0 to 100 scale (0 no effect, 100 complete control), approx. 10 d, read-out: Plant response rating, Galium) was 60% and the pest or weed control at 125 g/ha ([10]; Postemergence, visual rating about 10 d after treatment, read-out: Ragweed plant response rating (0 to 100 scale)) was 0%. For the same compound, the pest or weed control at 500 g/ha ([10]; Postemergence, 500 g ai/ha, visual injury, 0 to 100 scale (0 no effect, 100 complete control), approx. 10 d, read-out: Plant response rating, Ragweed) was 20%, the pest or weed control at 125 g/ha ([11]; Postemergence, visual rating about 10 d after treatment, read-out: Foxtail, Giant plant response rating (0 to 100 scale)) was 90% and the pest or weed control at 500 g/ha ([11]; Postemergence, 500 g ai/ha, visual injury, 0 to 100 scale (0 no effect, 100 complete control), approx. 10 d, read-out: Plant response rating, Foxtail, Giant) was 90%.
